As a reminder, the IC50 is the concentration at which inhibition is half-maximal.

In the assay the test system is HuH-7 replicon cells 5–15 and 9–13 (HCV replication). Briefly: Inhibition of viral replication in HuH-7 replicon cells (HCV RNA / GAPDH RNA by multiplex RT-PCR). To be noted: Hepatitis C virus, 72 h; inhibiting 50% of replication; HuH-7 replicon cells, 3 days; read-out: IC50. The format is cell-based. In short, it runs like this: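 Replicon cells seeded at 7×10^3 cells/well, grown 24 h, then exposed 3 days at 37 °C to compound at final 100 μM–1 μM (1% DMSO). Multiplex TaqMan RT-PCR on total RNA quantified HCV 5′-UTR and GAPDH RNA against a standard curve; HCV/GAPDH ratio reported as percent of untreated control.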
As to `N#Cc1cccc(S(=O)(=O)Oc2ccccc2/C=N/NC(=O)Cc2ccccc2)c1` [Compound 114, 2-{(E)-[2-(2-phenylacetyl)hydrazono]methyl}phenyl 3-cyanobenzenesulfonate], the IC50 is > 50 µM. Consider `O=C(CCc1ccco1)N/N=C/c1ccccc1OS(=O)(=O)c1ccc(C(F)(F)F)cc1` [Compound 54, 2-((E)-{2-[3-(2-furyl)propanoyl]hydrazono}methyl)phenyl4-(trifluoromethyl)benzenesulfonate], for which the concentration for half-maximal inhibition (IC50) is < 5 µM.

For `COc1ccc(CC(=O)N/N=C/c2ccccc2OS(=O)(=O)c2ccc(C(F)(F)F)cc2)cc1Br` [Compound 70, 2-((E)-{2-[2-(3-bromo-4-methoxyphenyl)acetyl]hydrazono}methyl)-phenyl 4-(trifluoromethyl)benzenesulfonate], the IC50 is < 5 µM. Then `CN(c1ccccc1/C=N/NC(=O)Cc1cccc(Cl)c1)S(=O)(=O)c1ccc(C(F)(F)F)cc1` [Compound 244, N-[2-((E)-{[(3-chlorophenyl)acetyl]hydrazono}methyl)-phenyl]-N-methyl-4-(trifluoromethyl)benzenesulfonamide], with < 5 µM. Consider `Cc1ncccc1C(=O)N/N=C/c1ccccc1OS(=O)(=O)c1ccc(C(F)(F)F)cc1` [Compound 92, 2-((E)-{2-[(2-methylpyridin-3-yl)carbonyl]hydrazono}methyl)phenyl 4-(trifluoromethyl)benzenesulfonate], for which the half-inhibitory concentration (IC50) fell in the range of 5 to 50 µM.

Regarding `O=S(=O)(N/N=C/c1ccccc1OS(=O)(=O)c1ccc(C(F)(F)F)cc1)c1cccc2ccccc12` [Compound 256, 2-{(E)-[2-(1-naphthylsulfonyl)hydrazono]methyl}phenyl4-(trifluoromethyl)benzenesulfonate], the IC50 is 5 to 50 µM. For `Cc1ccc(/C=N/NC(=O)Cc2cccc(Cl)c2)c(OS(=O)(=O)c2ccc(C(F)(F)F)cc2)c1` [Compound 179, 2-((E)-{[(3-chlorophenyl)acetyl]hydrazono}methyl)-5-methylphenyl 4-(trifluoromethyl)benzenesulfonate], the IC50 was > 50 µM. In the case of `O=C(Cc1cc(C(F)(F)F)cc(C(F)(F)F)c1)N/N=C/c1ccccc1OS(=O)(=O)c1ccc(C(F)(F)F)cc1` [Compound 39, 2-[(E)-(2-{2-[3,5-bis(trifluoromethyl)phenyl]acetyl}hydrazono)-methyl]phenyl 4-(trifluoromethyl)benzenesulfonate], the concentration for half-maximal inhibition (IC50) is < 5 µM. In the case of `O=C(Cc1cccc(C(F)(F)F)c1)N/N=C/c1ccccc1OS(=O)(=O)c1ccc(C(F)(F)F)cc1` [Compound 35, 2-[(E)-(2-{2-[3-(trifluoromethyl)phenyl]acetyl}hydrazono)-methyl]phenyl 4-(trifluoromethyl)benzenesulfonate], the IC50 is < 5 µM.

With `CN(c1ccccc1/C=N/NC(=O)Cc1cccc(Br)c1)S(=O)(=O)c1ccc(C(F)(F)F)cc1` [Compound 245, N-[2-((E)-{[(3-bromophenyl)acetyl]hydrazono}methyl)-phenyl]-N-methyl-4-(trifluoromethyl)benzenesulfonamide], the IC50 was < 5 µM.

Consider `O=C(Cc1ccc(I)cc1)N/N=C/c1ccccc1OS(=O)(=O)c1ccc(C(F)(F)F)cc1` [Compound 60, 2-((E)-{2-[2-(4-iodophenyl)acetyl]hydrazono}methyl)-phenyl 4-(trifluoromethyl)benzenesulfonate], for which the IC50 is < 5 µM. In the case of `COc1cccc(CC(=O)N/N=C/c2ccc(C)cc2OS(=O)(=O)c2ccc(C)cc2)c1` [Compound 177, 2-((E)-{[(3-methoxyphenyl)acetyl]hydrazono}methyl)-5-methylphenyl 4-methylbenzenesulfonate], the IC50 is < 5 µM.

`O=C(Cc1c[nH]c2ccccc12)N/N=C/c1ccccc1OS(=O)(=O)c1ccc(C(F)(F)F)cc1` [Compound 3, 2-((E)-{2-[2-(1H-indol-3-yl)-acetyl]hydrazono}methyl)phenyl 4-(trifluoromethyl)benzene-sulfonate]: the IC50 is < 5 µM.

The values above are taken from US7026339B2, “Inhibitors of HCV NS5B polymerase” (priority 2003, dated 2006).
